Source: patent US10344060B2 (priority 2013, dated 2019)

Molecular target: hNav1.7 (Homo sapiens, UniProt Q15858)
Experiment: cell-based
Format: cell-based
Settings: Table 12; PatchXpress, tonic block; read-out: PX hNav1.7 Tonic IC50

hNav1.7, sequence (Q15858 whole entry): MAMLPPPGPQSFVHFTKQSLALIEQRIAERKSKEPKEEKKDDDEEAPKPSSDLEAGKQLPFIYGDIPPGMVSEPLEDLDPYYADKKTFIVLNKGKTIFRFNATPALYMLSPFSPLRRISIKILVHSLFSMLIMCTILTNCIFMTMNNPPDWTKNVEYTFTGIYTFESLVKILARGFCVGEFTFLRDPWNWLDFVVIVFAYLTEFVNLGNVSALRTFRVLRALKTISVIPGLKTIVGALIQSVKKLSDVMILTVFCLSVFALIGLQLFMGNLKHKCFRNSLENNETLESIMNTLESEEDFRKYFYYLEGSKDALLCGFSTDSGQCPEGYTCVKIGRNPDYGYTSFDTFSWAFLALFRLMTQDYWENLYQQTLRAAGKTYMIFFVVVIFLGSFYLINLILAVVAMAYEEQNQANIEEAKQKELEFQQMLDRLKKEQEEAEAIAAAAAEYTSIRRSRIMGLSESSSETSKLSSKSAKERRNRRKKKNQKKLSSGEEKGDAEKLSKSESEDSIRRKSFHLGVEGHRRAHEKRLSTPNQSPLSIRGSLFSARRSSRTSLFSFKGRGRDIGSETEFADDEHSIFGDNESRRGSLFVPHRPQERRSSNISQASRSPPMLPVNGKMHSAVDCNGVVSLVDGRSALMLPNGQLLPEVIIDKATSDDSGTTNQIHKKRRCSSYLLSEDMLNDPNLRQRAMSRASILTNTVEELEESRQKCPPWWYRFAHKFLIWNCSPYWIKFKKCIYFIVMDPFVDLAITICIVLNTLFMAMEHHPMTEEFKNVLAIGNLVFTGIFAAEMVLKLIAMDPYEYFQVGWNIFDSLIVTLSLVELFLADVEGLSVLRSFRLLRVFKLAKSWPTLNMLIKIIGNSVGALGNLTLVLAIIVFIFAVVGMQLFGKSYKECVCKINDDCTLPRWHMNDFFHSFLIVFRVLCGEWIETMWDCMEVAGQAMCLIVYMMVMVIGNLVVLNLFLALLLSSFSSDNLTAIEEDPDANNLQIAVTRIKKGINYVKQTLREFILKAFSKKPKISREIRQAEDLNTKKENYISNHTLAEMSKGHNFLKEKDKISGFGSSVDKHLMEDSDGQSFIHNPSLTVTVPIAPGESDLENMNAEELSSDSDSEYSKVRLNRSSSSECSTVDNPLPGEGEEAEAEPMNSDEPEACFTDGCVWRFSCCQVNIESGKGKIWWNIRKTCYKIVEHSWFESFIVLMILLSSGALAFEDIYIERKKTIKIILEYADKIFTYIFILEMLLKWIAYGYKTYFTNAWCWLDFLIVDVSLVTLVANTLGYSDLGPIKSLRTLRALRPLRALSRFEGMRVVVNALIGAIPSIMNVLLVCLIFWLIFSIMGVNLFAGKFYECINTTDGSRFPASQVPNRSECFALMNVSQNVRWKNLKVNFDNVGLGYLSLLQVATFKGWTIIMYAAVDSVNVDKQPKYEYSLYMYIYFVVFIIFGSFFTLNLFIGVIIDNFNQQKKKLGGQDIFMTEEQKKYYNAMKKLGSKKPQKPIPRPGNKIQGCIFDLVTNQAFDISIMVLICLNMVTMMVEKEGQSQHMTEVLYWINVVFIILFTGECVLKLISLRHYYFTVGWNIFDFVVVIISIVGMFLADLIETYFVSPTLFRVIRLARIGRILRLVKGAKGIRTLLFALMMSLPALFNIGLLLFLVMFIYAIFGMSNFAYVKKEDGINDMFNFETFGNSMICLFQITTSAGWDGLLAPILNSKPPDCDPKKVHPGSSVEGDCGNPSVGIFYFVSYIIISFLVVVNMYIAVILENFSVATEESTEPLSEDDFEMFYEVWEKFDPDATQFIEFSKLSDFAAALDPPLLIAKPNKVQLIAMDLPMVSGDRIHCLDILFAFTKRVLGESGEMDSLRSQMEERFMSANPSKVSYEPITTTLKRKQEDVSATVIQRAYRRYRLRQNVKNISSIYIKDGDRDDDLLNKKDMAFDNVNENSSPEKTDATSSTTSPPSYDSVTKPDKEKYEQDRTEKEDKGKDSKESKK

| Compound | IC50 |
| --- | --- |
| C#CC[C@H](N)C(=O)N[C@@H](Cc1ccc(O)cc1)C(=O)N[C@H]1CSSC[C@@H]2NC(=O)[C@@H]3CSSC[C@@H](C(=O)N[C@@H](CCCNC(=N)N)C(=O)N[C@@H](CCCCN)C(=O)N[C@@H](CCC(=O)O)C(=O)N[C@H](C(N)=O)[C@@H](C)CC)NC(=O)[C@H](Cc4ccc5ccccc5c4)NC(=O)[C@H](CC(C)C)NC(=O)[C@H](CCCCN)NC(=O)[C@H](CSSC[C@H](NC(=O)[C@H]([C@@H](C)O)NC(=O)[C@H](Cc4c[nH]c5ccccc45)NC(=O)[C@H](CCCC)NC(=O)[C@H](Cc4c[nH]c5ccccc45)NC(=O)[C@H](CCCCN)NC(=O)[C@H](CCC(N)=O)NC1=O)C(=O)N[C@@H](CC(=O)O)C(=O)N[C@@H](CO)C(=O)N[C@@H](CCCCN)C(=O)N[C@@H](CCCNC(=N)N)C(=O)N[C@@H](C)C(=O)N3)NC(=O)[C@H](CCCNC(=N)N)NC(=O)[C@H](CC(C)C)NC(=O)CNC(=O)[C@H](CCC(=O)O)NC2=O [compound 852] | 182 nM |
| C#CC[C@H](N)C(=O)N[C@@H](Cc1ccc(O)cc1)C(=O)N[C@H]1CSSC[C@@H]2NC(=O)[C@@H]3CSSC[C@@H](C(=O)N[C@@H](CCCNC(=N)N)C(=O)N[C@@H](CCCCN)C(=O)N[C@@H](CCC(=O)O)C(=O)N[C@H](C(N)=O)[C@@H](C)CC)NC(=O)[C@H](Cc4ccccc4)NC(=O)[C@H](CC(C)C)NC(=O)[C@H](CCCCN)NC(=O)[C@H](CSSC[C@H](NC(=O)[C@H]([C@@H](C)O)NC(=O)[C@H](Cc4c[nH]c5ccccc45)NC(=O)[C@H](CCCC)NC(=O)[C@H](Cc4c[nH]c5ccccc45)NC(=O)[C@H](CCCCN)NC(=O)[C@H](CCC(N)=O)NC1=O)C(=O)N[C@@H](CC(=O)O)C(=O)N[C@@H](CO)C(=O)N[C@@H](CCCCN)C(=O)N[C@@H](CCCNC(=N)N)C(=O)N[C@@H](C)C(=O)N3)NC(=O)[C@H](CCCNC(=N)N)NC(=O)[C@H](CC(C)C)NC(=O)CNC(=O)[C@H](CCC(=O)O)NC2=O [compound 853] | 15.3 nM |
| C#CC[C@H](N)C(=O)N[C@@H](Cc1ccc(O)cc1)C(=O)N[C@H]1CSSC[C@@H]2NC(=O)[C@@H]3CSSC[C@@H](C(=O)N[C@@H](CCCNC(=N)N)C(=O)N[C@@H](CCCCN)C(=O)N[C@@H](CCC(=O)O)C(=O)N[C@H](C(N)=O)[C@@H](C)CC)NC(=O)[C@H](Cc4c[nH]c5ccccc45)NC(=O)[C@H](CCC)NC(=O)[C@H](CCCCN)NC(=O)[C@H](CSSC[C@H](NC(=O)[C@H]([C@@H](C)O)NC(=O)[C@H](Cc4c[nH]c5ccccc45)NC(=O)[C@H](CCCC)NC(=O)[C@H](Cc4c[nH]c5ccccc45)NC(=O)[C@H](CCCCN)NC(=O)[C@H](CCC(N)=O)NC1=O)C(=O)N[C@@H](CC(=O)O)C(=O)N[C@@H](CO)C(=O)N[C@@H](CCCCN)C(=O)N[C@@H](CCCNC(=N)N)C(=O)N[C@@H](C)C(=O)N3)NC(=O)[C@H](CCCNC(=N)N)NC(=O)[C@H](CC(C)C)NC(=O)CNC(=O)[C@H](CCC(=O)O)NC2=O [compound 857] | 3.03 nM |
| C#CC[C@@H]1NC(=O)[C@@H]2CSSC[C@H](NC(=O)[C@H](Cc3ccc(O)cc3)NC(=O)[C@@H](N)CC#N)C(=O)N[C@@H](CCC(N)=O)C(=O)N[C@@H](CCCCN)C(=O)N[C@@H](Cc3c[nH]c4ccccc34)C(=O)N[C@@H](CCCC)C(=O)N[C@@H](Cc3c[nH]c4ccccc34)C(=O)N[C@@H]([C@@H](C)O)C(=O)N[C@H]3CSSC[C@H](NC(=O)[C@H](CCCNC(=N)N)NC(=O)[C@H](CC(C)C)NC(=O)CNC1=O)C(=O)N[C@@H](CCCCN)C(=O)N[C@@H](CC(C)C)C(=O)N[C@@H](Cc1c[nH]c4cc(Br)ccc14)C(=O)N[C@H](C(=O)N[C@@H](CCCNC(=N)N)C(=O)N[C@@H](CCCCN)C(=O)N[C@@H](CCC(=O)O)C(=O)N[C@H](C(N)=O)[C@@H](C)CC)CSSC[C@H](NC(=O)[C@H](C)NC(=O)[C@H](CCCNC(=N)N)NC(=O)[C@H](CCCCN)NC(=O)[C@H](CO)NC(=O)[C@H](CC(=O)O)NC3=O)C(=O)N2 [compound 873] | 8.47 nM |
